# Test results: a melting point compilation (Tetko et al.)
row,Structure (SMILES),melting point
1,CC(C)(C)c1nc(C(=O)O)cs1,126 to 128 °C
2,O=C(O)CNc1nccs1,261 to 263 °C
3,N#CC1(N2CCNCC2)CCCCC1,82 to 84 °C
4,Cc1ccc(F)c(-c2nc(C(=O)O)no2)c1,107 to 109 °C
5,O=Cc1coc(-c2ccccc2)n1,90 to 92 °C
6,O=C(O)C1(c2ccc(F)cc2F)CCOCC1,134 to 136 °C
7,O=C(O)CCc1nncn1-c1ccccc1,202 to 204 °C
8,O=C(O)c1ccccc1Oc1cccnc1,134 to 136 °C
9,NCC1(O)CCOCC1,65 to 67 °C
10,COCC(N)=O,86 to 88 °C
11,COc1cc(C(=O)O)cc(Cl)c1OC,191 to 193 °C
12,CC(O)c1cc[nH]n1 (stereo not given),58 to 60 °C
13,O=[N+]([O-])c1n[nH]cc1S(=O)(=O)Cl,154 to 156 °C
14,O=C(O)c1ccc(N/N=C/c2cccc(F)c2)cc1,229 to 231 °C
15,CC(C)c1nnnn1CC(=O)O,179 to 181 °C
16,Cc1ccc(C)c(C(=O)CCl)c1,28 to 30 °C
17,CCn1ccnc1C(O)CCc1ccccc1 (stereo not given),77 to 79 °C
18,N#CCc1cc(Cl)c2c(c1)OCCO2,102 to 104 °C
19,N#Cc1cc(C(=O)O)c(N)[nH]c1=O,250 to 252 °C
20,Cc1ccccc1-c1cc(N)on1,99 to 101 °C
21,c1ccc2[nH]c(C3CCCNC3)nc2c1 (stereo not given),189 to 191 °C
22,CC(C)n1ncc(C(=O)O)c1C1CC1,99 to 101 °C
23,CC1C=CC2C(=O)N(C(C)C)C(=O)C2C1C(=O)O (stereo not given),149 to 151 °C
24,COc1cccc(NC2=NC(C)(C)CS2)c1,105 to 107 °C

row,Structure (SMILES),melting point
1,O=Cc1cnc(-c2ccccn2)s1,149 to 151 °C
2,NNC(=O)NCCc1cccs1,90 to 92 °C
3,FC(F)(F)c1cccc2c(Cl)ncnc12,144 to 146 °C
4,NC(=O)CC1CCCC1,149 to 151 °C
5,COC(=O)c1c(CC(C)C)csc1N,66 to 68 °C
6,Cn1cnnc1C1CCNCC1,181 to 183 °C
7,Nc1ccc(Sc2ccc(C(F)(F)F)cc2)cc1,93 to 95 °C
8,CCOC(=O)C(N)c1cccc(O)c1 (stereo not given),148 to 150 °C
9,CCOC(=O)c1c(-c2ccc(C)o2)csc1N,93 to 95 °C
10,CC(C)c1cnc(S)n1C(C)C,177 to 179 °C
11,Cc1cc(C(=O)O)nn1C(F)F,175 to 177 °C
12,CC(=O)NCc1ccc(C(=O)CCl)s1,143 to 145 °C
13,NC(=S)Cc1ccccc1F,92 to 94 °C
14,Cc1ccc(C(=O)NCC(=O)O)cc1C,160 to 162 °C
15,CC(C)(C(=O)O)C(O)c1cccc(O)c1 (stereo not given),163 to 165 °C
16,Nc1nc2ccccc2nc1Cl,141 to 143 °C
17,Nc1cc(Cl)cc(C(=O)O)c1F,196 to 198 °C
18,NC(Cn1ccccc1=O)=NO,211 to 213 °C
19,CC(C)(C)OC(=O)Nc1cscn1,153 to 155 °C
20,CC(C)(C)n1cc(C(=O)O)c(-c2ccc(F)cc2F)n1,145 to 147 °C
21,Cc1cc(O)n2ncnc2c1,254 to 256 °C
22,Cc1cc(O)c(C#N)c(C)n1,301 to 303 °C
23,Cc1nn(C)c(C)c1CC(=O)N1CCC(C(=O)O)CC1,167 to 169 °C
24,Cc1[nH]c(C(=O)O)c(C)c1C,80 to 82 °C

row,Structure (SMILES),melting point
1,CN1CCC(C)(O)CC1,62 to 64 °C
2,Oc1cccc(Oc2ccncc2)c1,119 to 121 °C
3,NCCCN1CCN(c2ncccn2)CC1,72 to 74 °C
4,Cc1cccc(Oc2ncccc2N)c1C,147 to 149 °C
5,Cc1ccc(-c2nn(-c3ccccc3)cc2C=O)cc1C,102 to 104 °C
6,Cc1csc(Sc2ccc(N)cc2Cl)n1,112 to 114 °C
7,CC(C)c1cc(C(C)C)c([N+](=O)[O-])cc1[N+](=O)[O-],77 to 79 °C
8,CC(C)(C)Cc1noc2ncc(C(=O)O)cc12,231 to 233 °C
9,Nc1cnn(-c2ccccn2)c1,79 to 81 °C
10,Cc1nnc(N2CCCC2)c(C(N)=O)c1C,211 to 213 °C
11,O=C(Nc1ccccc1C(=O)O)c1ccc(Oc2ccccc2)cc1,189 to 191 °C
12,CC(C)n1ncc2c(C(=O)O)cc(-c3ccccc3)nc21,198 to 200 °C
13,CC1(C)NC(=O)N(CCCC(=O)O)C1=O,97 to 99 °C
14,CCOC(=O)/C(C#N)=C(\N)C(Cl)(Cl)Cl,94 to 96 °C
15,Cc1nnc(S)n1CCS(C)(=O)=O,193 to 195 °C
16,CC(C)(C)OC(=O)Nc1ccc(N)cn1,157 to 159 °C
17,CCC(CC)(Cc1nc2ccccc2s1)C(=O)O,143 to 145 °C
18,COC(=O)C1CCC(C(=O)O)CC1 (stereo not given),85 to 87 °C
19,CCOCCNC(N)=O,60 to 62 °C
20,O=C(O)CCc1nc2c(F)cccc2[nH]1,185 to 187 °C
21,c1ccc(Nc2ccccn2)cc1,78 to 82 °C
22,COc1ccc(Oc2ncccc2N)cc1,149 to 151 °C

# The next lines start with the values.
row,melting point,Structure (SMILES)
1,114 to 116 °C,Nc1cccc(C(=O)N2CCSCC2)c1
2,124 to 126 °C,CCc1ccc(C(=O)c2ccc(N)cc2)o1
3,119 to 121 °C,O=C(O)c1c[nH]c(Br)c1
4,199 to 201 °C,NC(=O)C1CCN(c2ccccc2N)CC1
5,115 to 117 °C,CC(=O)N(c1ccc(C(F)(F)F)cc1)c1nc(CCl)cs1
6,82 to 84 °C,CC1CNc2ccccc2NC1
7,148 to 150 °C,N#CCc1ccc(OCC(=O)O)cc1
8,327 to 329 °C,O=C1NC(=O)C2(CCS(=O)(=O)CC2)N1
9,264 to 266 °C,O=C(O)c1c[nH]c(C(=O)N2CCCC2)c1
10,179 to 181 °C,Cc1cc(=O)oc2cc(OCC(=O)NN)ccc12
11,135 to 136 °C,Nc1ccccc1C(=O)NC1CC1
12,71 to 73 °C,CC(Cl)C(=O)Nc1ccccc1[N+](=O)[O-] (stereo not given)
13,40 to 44 °C,O=[N+]([O-])c1cc(F)ccc1S(=O)(=O)Cl
14,98 to 100 °C,Clc1ccc(NCc2cccnc2)cc1
15,249 to 251 °C,CC1(c2ccc(S(N)(=O)=O)cc2)NC(=O)NC1=O (stereo not given)
16,126 to 128 °C,CCOC(=O)c1cc(N2CCNC(=O)C2)ccc1N
17,170 to 172 °C,O=C1NC(=O)N(Cc2cccs2)C1=O
18,124 to 126 °C,CNS(=O)(=O)c1ccc2c(c1)CCN2
19,193 to 195 °C,Cc1ccc(N2C(=O)NC(CCC(=O)O)C2=O)cc1Cl (stereo not given)
20,90 to 92 °C,Fc1ccccc1-c1nnc(S)n1Cc1ccccc1
21,164 to 166 °C,NC(=O)CCNCc1ccccc1
22,236 to 238 °C,O=C(O)c1sccc1S(=O)(=O)Nc1cccc2cn[nH]c12
23,106 to 108 °C,CC(=O)Nc1ccc(CCO)cc1
24,289 to 291 °C,O=C(O)c1ccc(S(=O)(=O)Nc2nccs2)cc1
25,117 to 119 °C,CS(=O)(=O)c1ccc2c(c1)NCCO2

row,melting point,Structure (SMILES)
1,121 to 123 °C,COc1ccccc1C(C)(C)C(=O)O
2,77 to 79 °C,CS(=O)(=O)Cc1ccc(F)cc1CN
3,279 to 281 °C,Cc1ccc(Cn2c(N)cc(=O)[nH]c2=O)cc1
4,247 to 249 °C,O=C(Cn1cc(C(=O)O)cn1)NC1CCCCC1
5,59 to 61 °C,COC(=O)C(=O)CC(=O)c1ccccc1C
6,123 to 125 °C,O=C(CCl)NCc1ccc(COc2ccccc2)cc1
7,133 to 135 °C,Cc1ccc(S(=O)(=O)CC(=O)CBr)cc1
8,143 to 145 °C,CNC(=O)COc1ccc(CC(=O)O)cc1
9,214 to 216 °C,O=C(O)CNC(=O)c1ccc(Cl)cc1
10,53 to 55 °C,Fc1cccc(Cn2cc(Br)cn2)c1F
11,97 to 99 °C,O=Cc1cn(Cc2cccnc2)nn1
12,145 to 147 °C,N#Cc1ccc(NC(=O)CC2CCCC2)cc1
13,175 to 177 °C,Cc1ccc(N2C(=O)CC(C(=O)O)C2c2cccs2)cc1 (stereo not given)
14,156 to 158 °C,O=C(Nc1cccc2c1CCCN2)c1ccc(F)cc1
15,181 to 183 °C,CN1CC(=O)Nc2cc(Cl)ccc21
16,134 to 136 °C,CCOC(=O)/C(C#N)=C\Nc1ccc(C)cc1
17,49 to 51 °C,O=C1CCCSc2ccc(Cl)cc21
18,47 to 49 °C,COCCOc1cccc(CC(=O)O)c1
19,120 to 124 °C,O=C1C=CC(=O)N1c1ccc2ccccc2c1
20,195 to 197 °C,CCn1c(=O)c2ccccc2n2c(CCl)nnc12
21,111 to 113 °C,CCOc1cc(C=O)ccc1OCc1c(F)cccc1Cl
22,80 to 82 °C,CC(C)c1ccc(-n2ccnc2SCC(=O)O)cc1
23,111 to 113 °C,Nc1ccccc1OCC(=O)N1CCOCC1
24,125 to 127 °C,CC(C)c1ccc(S(=O)(=O)N2CCNCC2)cc1
25,61 to 63 °C,CCN(CC)C(=O)COc1ccc(C(C)=O)cc1

row,melting point,Structure (SMILES)
1,134 to 136 °C,C#CCNC(=O)Nc1ccccc1F
2,155 to 157 °C,OCc1ccnc(-n2ccnc2)c1
3,75 to 77 °C,CC(C)(C)c1ccc(C(C)(C)N)cc1
4,49 to 51 °C,CC(Cc1ccc(Cl)cc1Cl)C(=O)O (stereo not given)
5,139 to 141 °C,O=C(O)c1cc(S(=O)(=O)Cl)c(Br)o1
6,75 to 77 °C,ClCc1cc2c(cc1Br)OCCCO2
7,58 to 60 °C,O=S1(=O)CCCN1Cc1ccc(Br)cc1
8,209 to 211 °C,O=C(O)/C=C/c1ccc(Br)s1
9,99 to 101 °C,NC(=O)C1(c2cccc(Cl)c2)CC1
10,195 to 197 °C,N#Cc1ccc(C(=O)NN)cc1
11,119 to 121 °C,COC(=O)C1CCCN1C(=O)c1ccc([N+](=O)[O-])s1 (stereo not given)
12,251 to 253 °C,O=c1[nH]c2ccc(NCc3ccc(F)cc3)cc2[nH]1
13,144 to 146 °C,Cc1ccc(NC(=O)C2CCCNC2)nc1 (stereo not given)
14,76 to 78 °C,CCc1ccc(C(=O)c2ccc([N+](=O)[O-])cc2)o1
15,86 to 88 °C,NCc1cccc(NC(=O)C2CCCC2)c1
16,60 to 62 °C,C#CCNS(=O)(=O)c1ccccc1
17,152 to 154 °C,Nc1ccc(Cl)cc1C(=O)NCC1CC1
18,105 to 107 °C,O=C1CCCCC1N1CCS(=O)(=O)CC1 (stereo not given)
19,159 to 161 °C,Clc1ccc2cc(Br)ccc2n1
20,139 to 141 °C,OC(c1ccc(Cl)cc1)C1CCNCC1 (stereo not given)
21,200 to 202 °C,O=C(c1ccc(O)cc1)N1CCc2sccc2C1
22,84 to 86 °C,Cc1nc(-c2ccccc2)sc1CCl
23,103 to 105 °C,COC(=O)CNC(=O)c1cccc(N)c1
24,298 to 300 °C,O=C(CCl)Nc1ccc2c(c1)C(=O)c1ccccc1C2=O
25,196 to 198 °C,O=C(O)c1cccc([N+](=O)[O-])c1N1CCOCC1
